Here are results for two compounds from patent US20120231482A1, “METHOD, KIT OR DIAGNOSTIC FOR THE DETECTION OF REAGENTS WHICH INDUCE ALTERED CONTRACTILITY” (THE JOHNS HOPKINS UNIVERSITY, priority 2009, published 2012).

In one experiment the test system is myosin heavy chain α/β. The experiment in a line: Modified biotin switch assay, sites of HNO modification. In kind it is biochemical, rat. Conditions: for number of independent observations of peptide: 25 μM NCA or 500 μM AS; for Position of modified Cys: myosin heavy chain (α/β), Table 2. The protocol:
(§1) Rat myofibrillar preparations, as described in [7], were obtained from frozen ventricles (Pel Freez Biologicals) minced in 20 volumes/tissue weight of 4° C. relax buffer (SRB (75 mM KCL, 10 mM imidazole pH 7.2, 2 mM MgCl2) plus 4 mM phosphocreatine, 1 mM ATP, 50 mM BDM, 1 mM benzamidine-HCL, 0.1 mM PMSF, 1 μg/ml leupeptin, 1 μg/ml pepstatin, 1% (v/v) Trixon X-100) and adjusted to 10 mM EDTA. Minced preparations were centrifuged for 8 min at 3000xg and the supernant was decanted. Resulting pellets were resuspended in 10 volumes of SRB plus 1% Triton X-100 and subjected to 6 strokes in a Duall tissue homogenizer and centrifuged as above. Pellets were gently resuspended and centrifuged as above twice more in SRB including 1% (v/v) Triton X-100, twice in SRB lacking Triton X-100 and once in K-60 buffer (60 mM KCL, 20 mM MOPS, 2 mM MgCl2 pH 7) before being resuspended in 5 volumes of K-60.
(§2) Detection of HNO modifications by Modified Biotin Switch. HNO modified thiols were detected using a modification to the standard biotin switch protocol. In brief, 100 μg of rat myofibrils/treatment were diluted to 0.5 μg/μl in HEN (250 mM HEPES pH 7.7, 1 mM EDTA and 0.1 mM neocuproine) including 0.1% (w/v) SDS and exposed to a treatment for 10 min at 37° C. which was subsequently removed by acetone precipitation. Remaining free thiols were blocked by addition of 300 μl of HEN including 2.5% (w/v) SDS and 20 mM N-ethylmaleimide (NEM), incubated for 20 min at 50° C. Excess NEM was removed by acetone precipitation. HNO and/or NO modified thiols were reduced using 5 mM DTT or 1 mM ascorbate in 150 μl of HEN including 1% (w/v) SDS and biotinylated with 0.8 mM Biotin-HPDP (Pierce) for one hour at room temperature. Excess biotin-HPDP was removed by acetone precipitation (2 volumes) and resultant pellets were carefully washed with an additional volume of acetone. Biotinylated proteins were resuspended in 1 ml of HEN including 0.1% (w/v) SDS and captured by incubation with 15 μl of washed, packed Ultralink Immobilized Streptavidin (Pierce) for one hour at room temperature. Beads were washed four times in 50 bead volumes of HEN (twice including 0.1% (w/v) SDS, twice including 600 mM NaCl) and twice with EB (20 mM HEPES pH 7.7, 100 mM NaCl, 1 mM EDTA). Captured proteins were eluted with 40 μl of EB containing 100 mM DTT, mixed with 15 μl of 4×LDS sample buffer, boiled, separated by SDS PAGE and silver stained. For MS studies, biotinylated proteins were digested overnight with trypsin (Promega) prior to capture and washed ten additional times with 5 mM ammonium bicarbonate/20% acetonitrile before being eluted in 100 μl of wash buffer including 100 mM DTT as described. Captured peptides were identified using a LTQ linear ion trap tandem mass spectrometer (ThermoFinnigan, Waltham Mass. USA) with data searched against the rat IPI primary sequence database using the sorcerer searching platform (sagen).
(§3) To investigate the modifications that underlie the difference seen in the functional effect of these two compounds we performed an analysis on the myofilament proteins, using a modified biotin-switch method, followed by mass spectrometry for identification (FIG. 3). Following treatment with HNO or control compounds, unmodified cysteines are blocked with NEM before treatment with a reducing agent and labeling the exposed cysteines with a biotin group (FIG. 3A). In this case, 5 mM DTT was used as the reducing agent because it was shown in the physiological studies to reverse the effect of the treatment. […] Tryptic or chymotryptic peptides containing the modified cysteine residues were captured and identified by LC/MS/MS. […] To parse the role of candidate sites of modification between these two effects a comparative proteomics experiment was designed where modifications specific to NCA treatment would be considered candidates for the Ca^2+ effect while sites identified in common between AS and NCA could be candidates for the force effect (FIG. 3C). […]

Another experiment relates to α actinin. The description is as above. The note with it: for number of independent observations of peptide: Cys 889, tryptic peptide ELPPDQAQYCIKR, 25 μM NCA or 500 μM AS; for Position of modified Cys: α-Actinin, Table 2. In kind it is biochemical, rat. As to the method: as §1, §2, §3

As to `[Na+].[Na+].[O-][N+]([O-])=NO` [AS, Angeli's Salt], the “number of independent observations of peptide” value in the experiment on myosin heavy chain α/β (Cys 907, chymotryptic peptide ADAEERCDQL) is 2; in the experiment with α actinin, 3. For the same compound, the “Position of modified Cys” value was 907(α/β) with myosin heavy chain α/β and 889 in the experiment with α actinin.
With `CC(=O)OC1(N=O)CCCCC1` [NCA, 1-nitrosocyclohexylacetate], the “number of independent observations of peptide” value with myosin heavy chain α/β (Cys 1750, tryptic peptide MDADLSQLQTEVEEAVQECR) is listed as 2; in the experiment with α actinin, 2. Also, the “Position of modified Cys” value in the experiment with myosin heavy chain α/β was 1750(α/β); with α actinin, 889.
